{
  "source": "patent US20020137929A1",
  "about": "“1 - (3-heterocyclylphenyl) isothiourea, -isourea, -guanidine and -amidine herbicidal agents” (Intellectual Property Department, BASF Aktiengesellschaft, priority 1998, published 2002)",
  "key": {"[1]": {"system": "ABUTH (Velvetleaf)", "test": "Postemergence herbicidal evaluation", "assay_type": "in vivo, Abutilon theophrasti", "details": "postemergence", "procedure": "(§1) In the tests, seedling plants are grown in jiffy flats for about two weeks. The test compounds are dispersed in 50/50 acetone/water mixtures containing 0.5% TWEEN®20, a polyoxyethylene sorbitan monolaurate surfactant of Atlas Chemical Industries, in sufficient quantities to provide the equivalent of about 0.0156 kg to 0.500 kg per hectare of active compound when applied to the plants through a spray nozzle operating at 40 psi for a predetermined time. After spraying, the plants are placed on greenhouse benches and are cared for in accordance with conventional greenhouse procedures. From four to five weeks after treatment, the seedling plants are examined and rated according to the rating system set forth below. Where more than one test is involved for a given compound, the data are averaged.\n(§2) Plant species employed in these evaluations are reported by header abbreviation, common name and scientific name.\n(§3) Results of herbicide evaluation are expressed on a rating scale (0-9). The scale is based upon a visual observation of plant stand, vigor, malformation, size, chlorosis and overall plant appearance as compared with a control."}, "[2]": {"system": "AMBEL (Ragweed, Common)", "test": "Postemergence herbicidal evaluation", "assay_type": "in vivo, Ambrosia artemisifolia", "details": "postemergence", "procedure": "as §1, §2, §3"}, "[3]": {"system": "ECHCG (Barnyardgrass)", "test": "Postemergence herbicidal evaluation", "assay_type": "in vivo, Echinochloa crus-galli", "details": "postemergence", "summary_of_the_method": "(§4)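 Herbicidal effect was judged by eye on a 0–9 scale covering stand, vigor, deformity, size and chlorosis, compared with controls, four to five weeks after seedlings about two weeks old were sprayed (40 psi, ~0.0156–0.500 kg/ha).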"}, "[4]": {"system": "SETVI (Foxtail, Green)", "test": "Postemergence herbicidal evaluation", "assay_type": "in vivo, Setaria viridis", "details": "postemergence", "summary_of_the_method": "as §4"}, "[5]": {"system": "GLXMAW (Soybean, Williams)", "test": "Postemergence herbicidal evaluation", "assay_type": "in vivo, Glycine max, (L.) Merr. cv Williams", "details": "postemergence", "procedure": "as §1, §2, §3"}, "[6]": {"system": "ORYSAT (Rice, Tebonnet)", "test": "Postemergence herbicidal evaluation", "assay_type": "in vivo, Oryza sativa, (L.) Tebonnet", "details": "postemergence", "procedure": "as §1, §2, §3"}, "[7]": {"system": "TRZAWR (Wheat, Winter, cv Riband)", "test": "Postemergence herbicidal evaluation", "assay_type": "in vivo, Triticum aestivum", "details": "postemergence", "summary_of_the_method": "as §4"}, "[8]": {"system": "ABUTH (Velvetleaf)", "test": "Preemergence herbicidal evaluation", "assay_type": "in vivo, Abutilon theophrasti", "details": "rated 4-5 weeks after treatment", "from_the_text": "as §3\n(§5) The preemergence herbicidal activity of the test compounds of the present invention is exemplified by the following tests in which the seeds of a variety of monocotyledonous and dicotyledonous plants are separately mixed with potting soil and planted on top of approximately one inch of soil in separate pint cups. After planting, the cups are sprayed with the selected aqueous acetone solution containing test compound in sufficient quantity to provide the equivalent of about 0.0156 to 0.500 kg per hectare of test compound per cup. The treated cups are then placed on greenhouse benches, watered and cared for in accordance with conventional greenhouse procedures. From four to five weeks after treatment, the tests are terminated and each cup is examined and rated according to the rating system provided in Example 37.\n(§6) The compounds evaluated are reported by compound number given in Example 37."}, "[9]": {"system": "CASOB (Sicklepod)", "test": "Preemergence herbicidal evaluation", "assay_type": "in vivo, Cassia obtusifolia", "details": "rated 4-5 weeks after treatment", "from_the_text": "as §3, §5, §6"}, "[10]": {"system": "SETVI (Foxtail, Green)", "test": "Preemergence herbicidal evaluation", "assay_type": "in vivo, Setaria viridis", "details": "rated 4-5 weeks after treatment", "from_the_text": "as §3, §5, §6"}, "[11]": {"system": "MOOVA (Monochoria)", "test": "Preemergence weed control under flooded paddy conditions", "assay_type": "in vivo, Monochoria vaginalis", "details": "rated 3-4 weeks after treatment", "procedure": "as §3\nPreemergence herbicidal activity under flooded paddy conditions is determined as follows: plant seeds or propagating organs are planted in the top 0.5 cm of silt loam soil in 32 oz. plastic containers with a diameter of 10.5 cm and no drainage holes. Water is added to these containers and maintained at 1.5 to 3 cm above the soil surface for the duration of the experiment. The test compounds are applied as aqueous/acetone mixtures 50/50 v/v pipetted directly into the flood water to give the equivalent of about 0.0313 to 0.500 kg/ha of active ingredient. The treated containers are placed on greenhouse benches and cared for in accordance with conventional greenhouse procedures. Three to four weeks after treatment, the test is terminated and each container is examined and herbicidal effect rated according to the rating system provided in Example 37. The compounds evaluated are reported by compound number given in Example 37.\nPlant species employed in this example are reported by header abbreviation, common name and scientific name."}, "[12]": {"system": "SAGPY (Arrowhead (Pygmaea))", "test": "Preemergence weed control under flooded paddy conditions", "assay_type": "in vivo, Sagittaria pygmaea", "details": "rated 3-4 weeks after treatment", "summary_of_the_method": "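Herbicidal effect is scored visually on a 0-9 scale against an untreated control, three to four weeks after compounds are pipetted into the flood water (1.5 to 3 cm deep) over seeds planted in silt loam at 0.5 cm depth. Rates: about 0.0313 to 0.500 kg/ha.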"}},
  "data": [
    {"compound": "Cn1c(C(F)(F)F)cc(=O)n(-c2cc(N=C3SCC(=O)N3C3CCCC3)c(Cl)cc2F)c1=O", "note": "[Compound 166, 3-{4-Chloro-5-[(3-cyclopentyl-4-oxo-2-thiazolidinylidene)amino]-2-fluorophenyl}-1-methyl-6-(trifluoromethyl)-2,4(1H,3H)-pyrimidinedione]", "values": [
      {"measurement": "Herbicidal rating ABUTH", "setting": "[1]; rate 0.0156 kg/ha", "result": 2.0},
      {"measurement": "Herbicidal rating ABUTH", "setting": "[1]; rate 0.0313 kg/ha", "result": 1.0},
      {"measurement": "Herbicidal rating ABUTH", "setting": "[1]; rate 0.0625 kg/ha", "result": 3.0},
      {"measurement": "Herbicidal rating ABUTH", "setting": "[1]; rate 0.1250 kg/ha", "result": 9.0},
      {"measurement": "Herbicidal rating AMBEL", "setting": "[2]; rate 0.0156 kg/ha", "result": 0.0},
      {"measurement": "Herbicidal rating AMBEL", "setting": "[2]; rate 0.0313 kg/ha", "result": 3.0},
      {"measurement": "Herbicidal rating AMBEL", "setting": "[2]; rate 0.0625 kg/ha", "result": 6.0},
      {"measurement": "Herbicidal rating AMBEL", "setting": "[2]; rate 0.1250 kg/ha", "result": 7.0},
      {"measurement": "Herbicidal rating ECHCG", "setting": "[3]; rate 0.0156 kg/ha", "result": 0.0},
      {"measurement": "Herbicidal rating ECHCG", "setting": "[3]; rate 0.0313 kg/ha", "result": 0.0},
      {"measurement": "Herbicidal rating ECHCG", "setting": "[3]; rate 0.0625 kg/ha", "result": 1.0},
      {"measurement": "Herbicidal rating ECHCG", "setting": "[3]; rate 0.1250 kg/ha", "result": 2.0},
      {"measurement": "Herbicidal rating SETVI", "setting": "[4]; rate 0.0156 kg/ha", "result": 0.0},
      {"measurement": "Herbicidal rating SETVI", "setting": "[4]; rate 0.0313 kg/ha", "result": 0.0},
      {"measurement": "Herbicidal rating SETVI", "setting": "[4]; rate 0.0625 kg/ha", "result": 1.0},
      {"measurement": "Herbicidal rating SETVI", "setting": "[4]; rate 0.1250 kg/ha", "result": 2.0},
      {"measurement": "Herbicidal rating GLXMAW", "setting": "[5]; rate 0.0156 kg/ha", "result": 4.0},
      {"measurement": "Herbicidal rating GLXMAW", "setting": "[5]; rate 0.0313 kg/ha", "result": 3.5},
      {"measurement": "Herbicidal rating GLXMAW", "setting": "[5]; rate 0.0625 kg/ha", "result": 4.0},
      {"measurement": "Herbicidal rating GLXMAW", "setting": "[5]; rate 0.1250 kg/ha", "result": 5.0},
      {"measurement": "Herbicidal rating ORYSAT", "setting": "[6]; rate 0.0156 kg/ha", "result": 1.0},
      {"measurement": "Herbicidal rating ORYSAT", "setting": "[6]; rate 0.0313 kg/ha", "result": 0.5},
      {"measurement": "Herbicidal rating ORYSAT", "setting": "[6]; rate 0.0625 kg/ha", "result": 1.5},
      {"measurement": "Herbicidal rating ORYSAT", "setting": "[6]; rate 0.1250 kg/ha", "result": 2.0},
      {"measurement": "Herbicidal rating TRZAWR", "setting": "[7]; rate 0.0156 kg/ha", "result": 1.5},
      {"measurement": "Herbicidal rating TRZAWR", "setting": "[7]; rate 0.0313 kg/ha", "result": 1.5},
      {"measurement": "Herbicidal rating TRZAWR", "setting": "[7]; rate 0.0625 kg/ha", "result": 2.5},
      {"measurement": "Herbicidal rating TRZAWR", "setting": "[7]; rate 0.1250 kg/ha", "result": 3.0},
      {"measurement": "Preemergence herbicidal rating ABUTH", "setting": "[8]; 0.0156 kg/ha", "result": 0.0},
      {"measurement": "Preemergence herbicidal rating ABUTH", "setting": "[8]; 0.0313 kg/ha", "result": 2.0},
      {"measurement": "Preemergence herbicidal rating ABUTH", "setting": "[8]; 0.0625 kg/ha", "result": 1.0},
      {"measurement": "Preemergence herbicidal rating ABUTH", "setting": "[8]; 0.1250 kg/ha", "result": 7.0},
      {"measurement": "Preemergence herbicidal rating ABUTH", "setting": "[8]; 0.2500 kg/ha", "result": 9.0},
      {"measurement": "Preemergence herbicidal rating ABUTH", "setting": "[8]; 0.5000 kg/ha", "result": 9.0},
      {"measurement": "Preemergence herbicidal rating CASOB", "setting": "[9]; 0.0156 kg/ha", "result": 0.0},
      {"measurement": "Preemergence herbicidal rating CASOB", "setting": "[9]; 0.0313 kg/ha", "result": 0.0},
      {"measurement": "Preemergence herbicidal rating CASOB", "setting": "[9]; 0.0625 kg/ha", "result": 2.0},
      {"measurement": "Preemergence herbicidal rating CASOB", "setting": "[9]; 0.1250 kg/ha", "result": 0.0},
      {"measurement": "Preemergence herbicidal rating CASOB", "setting": "[9]; 0.2500 kg/ha", "result": 4.0},
      {"measurement": "Preemergence herbicidal rating CASOB", "setting": "[9]; 0.5000 kg/ha", "result": 6.0},
      {"measurement": "Preemergence herbicidal rating SETVI", "setting": "[10]; 0.0156 kg/ha", "result": 0.0},
      {"measurement": "Preemergence herbicidal rating SETVI", "setting": "[10]; 0.0313 kg/ha", "result": 0.0},
      {"measurement": "Preemergence herbicidal rating SETVI", "setting": "[10]; 0.0625 kg/ha", "result": 1.0},
      {"measurement": "Preemergence herbicidal rating SETVI", "setting": "[10]; 0.1250 kg/ha", "result": 6.0},
      {"measurement": "Preemergence herbicidal rating SETVI", "setting": "[10]; 0.2500 kg/ha", "result": 6.0},
      {"measurement": "Preemergence herbicidal rating SETVI", "setting": "[10]; 0.5000 kg/ha", "result": 9.0},
      {"measurement": "herbicidal effect rating, MOOVA", "setting": "[11]; 0.0313 kg/ha", "result": 9.0},
      {"measurement": "herbicidal effect rating, MOOVA", "setting": "[11]; 0.0625 kg/ha", "result": 9.0},
      {"measurement": "herbicidal effect rating, MOOVA", "setting": "[11]; 0.1250 kg/ha", "result": 9.0},
      {"measurement": "herbicidal effect rating, MOOVA", "setting": "[11]; 0.2500 kg/ha", "result": 9.0},
      {"measurement": "herbicidal effect rating, SAGPY", "setting": "[12]; 0.0313 kg/ha", "result": 2.0},
      {"measurement": "herbicidal effect rating, SAGPY", "setting": "[12]; 0.0625 kg/ha", "result": 4.0},
      {"measurement": "herbicidal effect rating, SAGPY", "setting": "[12]; 0.1250 kg/ha", "result": 5.0},
      {"measurement": "herbicidal effect rating, SAGPY", "setting": "[12]; 0.2500 kg/ha", "result": 6.0}
    ]}
  ]
}
